Our source for the IC50 values is PubChem BioAssay AID2305 (GlaxoSmithKline (GSK), 2010).

The assay concerns P. falciparum 3D7 growth, pLDH absorbance. The assay can be described thus: P. falciparum 3D7 growth inhibition, dose response, strain 3D7 (AID 2305).

As usually defined, the IC50 is the concentration that gives 50% inhibition. A lower IC50 goes with higher potency. In turn, `COc1cc(Nc2nccc(Nc3ccc4c(C)[nH]nc4c3)n2)cc2ccccc12` showed an IC50 of 0.7 µM. This lies in the sub-micromolar range.

For the molecule `CC(C)C[C@@H](C(=O)N[C@H](C(=O)Nc1nccs1)C(C)(C)C)[C@H](CCC(F)(F)F)N(O)C=O`, the half-maximal inhibitory concentration (IC50) is 0.6 µM. The IC50 values of the last two molecules are within 1.5-fold of each other. In turn, `O=C(Nc1ccc(C(=O)Nc2cccc(C3=NCCN3)c2)cc1)Nc1ccc(C2=NCCN2)cc1` came in with a half-maximal inhibitory concentration (IC50) of 0.1 µM.

For `CCOCCCn1c(=N)c(C(=O)NCc2ccc(F)cc2)cc2c(=O)n3cccc(C)c3nc21`, the IC50 came out at 0.53 µM.

With `O=S(=O)(NCCN1CCCC1)c1ccc(-c2ccc(CNC3Cc4ccccc4C3)cc2)s1`, the 50% inhibitory concentration (IC50) came to 0.59 µM. The IC50 values of the last two molecules are within 1.5-fold of each other.

In turn, `O=C1NC(c2ccccc2)C2(CCN(CC(O)COc3cccc4ncccc34)CC2)O1` (stereo not given) gave an IC50 of 0.74 µM. `CCc1cn2c3c(cc(C(=O)N[C@@H](Cc4ccccc4)[C@H](O)CNCCOC)cc13)N(C)S(=O)(=O)CC2` came in with a half-inhibitory concentration (IC50) of 0.95 µM.

For `Clc1ccc2c(NCCc3ccccn3)ccnc2c1`, the concentration for half-maximal inhibition (IC50) turned out to be 0.83 µM.

Take `Cc1cccc2c3c([nH]c12)C1(CCN(CCc2ccccc2)CC1)NC(C(=O)NCc1ccccc1)C3` (stereo not given): the concentration for half-maximal inhibition (IC50) came to 1 µM. This IC50 and that of the molecule before are within 1.5-fold of each other.

`O=C(NC1CCN(Cc2ccccc2O)C1)c1cccc(C(F)(F)F)c1` (stereo not given) yielded an IC50 of 0.73 µM. As for `CN1CCN(CCCN(Cc2ccc(-c3ccc(CNC4CCCC4)cc3)cc2)C(=O)CCC2CCCC2)CC1`, the IC50 came to 0.89 µM. The molecule `O=C(Nc1ccc(NC2=NCCN2)cc1)c1ccc(C(=O)Nc2ccc(NC3=NCCN3)cc2)cc1` yielded a 50% inhibitory concentration (IC50) of 0.65 µM.

On to `CC(=O)Oc1c(C2CCN(CCCCNC(=O)c3ccc(-c4ccc(C#N)cc4)cc3)CC2)ccc2c1CCCC2`, for which the IC50 turned out to be 1.13 µM. `COCCOc1nc(N)nc2ncc(Cc3cc(OC)ccc3OC)c(C)c12` showed an IC50 of 0.43 µM. This IC50 is about 2.6-fold lower than that of the molecule before. With `Cc1cc(N2CCC(C)CC2)nc2cc(O)ccc12`, the IC50 came out at 1.18 µM. On to `CC(=O)N1CCN(c2ccc(NC(=O)c3oc(-c4ccccc4)nc3C(F)(F)F)cn2)CC1`, for which the concentration for half-maximal inhibition (IC50) was 0.84 µM. The IC50 values of the last two molecules are within 1.5-fold of each other.

With `C=Cc1cc(NC(=O)N2CCc3cc(OC)c(C(F)(F)F)cc32)cc(-c2cccnc2)c1`, the IC50 was found to be 0.7 µM. Consider `COCCOc1ccc(Nc2nccc(-c3c(-c4cccc(NC(=O)c5c(F)cccc5F)c4)nn4ccccc34)n2)cc1F`, for which the IC50 came out at 0.95 µM. `COc1cccc2cc(C(=O)N[C@@H](CC(C)C)C(=O)N[C@H](/C=N/NC(=O)N3CCN(C)CC3)CCc3ccccc3)oc12` yielded an IC50 of 0.62 µM. The figure for `CC(C)c1ccc(NC(=O)c2ccc(NCCCN(C)Cc3ccccc3)c([N+](=O)[O-])c2)cc1` is 0.68 µM.

Take `CC[C@H]1CN2CC[C@H]1C[C@H]2[C@H](O)c1cc(-c2ccc(F)cc2C)nc2ccc(OC)cc12`: the IC50 is 0.16 µM. Take `CN(C)CCNc1ncnc2c1[nH]c1ccc(Br)cc12`: the half-inhibitory concentration (IC50) turned out to be 0.74 µM. Molecule `CC(C)Nc1nc(NCCc2cnc[nH]2)nc(NCc2ccc(Cl)c(Cl)c2)n1` came in with an IC50 of 0.96 µM. In turn, `Cn1nc(C(F)(F)F)c(-c2ccc(F)cc2)c1NC(=O)Nc1ccc(F)cc1` came in with a 50% inhibitory concentration (IC50) of 0.75 µM. Molecule `Cc1cnc(NCC2CCCCC2)nc1N[C@@H](CO)C(=O)Nc1ccccc1` showed a half-inhibitory concentration (IC50) of 1.1 µM. The IC50 values of the last two molecules are within 1.5-fold of each other. As to `CC(=O)CC(=O)N1CCN(c2ccccc2)CC1`, the IC50 was 1.06 µM. This IC50 and that of the molecule before are within 1.5-fold of each other. The molecule `N#Cc1cccc(/C=C/C(=O)NC2CCC(CCN3CCc4ccc(-c5cnccn5)cc4CC3)CC2)c1` (stereo not given) displayed a concentration for half-maximal inhibition (IC50) of 0.77 µM.

For `CCCCCCCCCN(CCC)C(=O)[C@@H]1OC(C(=O)OC(c2ccccc2)c2ccccc2)=C[C@H](NC(=O)OC(C)(C)C)[C@H]1NC(C)=O`, the half-maximal inhibitory concentration (IC50) was 0.64 µM.

`CCCC(CNCc1cccc(OCC)c1)CNc1cc(=O)c2ccccc2[nH]1` (stereo not given) returned an IC50 of 0.85 µM.

On to `C[C@@H]1CN(c2cnn(Cc3cccc(NC(=O)Nc4ccc(-c5ccccc5)cc4)c3)c(=O)c2Cl)C[C@H](C)N1`, for which the IC50 came out at 0.34 µM.

In turn, `COc1ccc(C(=O)CCC(=O)N(Cc2ccc(-c3ccc(CNCc4cccnc4)cn3)cc2)C2CCN(Cc3ccccc3)CC2)cc1F` gave a half-maximal inhibitory concentration (IC50) of 0.98 µM.

For `CCN(CC)CCN(Cc1ccc(-c2ccc(C(F)(F)F)cc2)nc1)C(=O)Cn1c(SCc2ccc(F)cc2)nc(=O)c2sccc21`, the IC50 worked out at 0.84 µM. The IC50 values of the last two molecules are within 1.5-fold of each other. On to `O=S(=O)(Nc1ccc(CCN2CCC(N3CCCCC3)CC2)cc1)c1ccccc1C(F)(F)F`, for which the 50% inhibitory concentration (IC50) came out at 1.02 µM. Turning to `COc1ccccc1CCNc1ncnc2c1[nH]c1ccc(F)cc12`, the IC50 came to 0.84 µM. `Cc1cc(NCCC(=O)Nc2ccccc2)nc(NCc2ccccc2C)n1` registered a 50% inhibitory concentration (IC50) of 0.66 µM. `Cc1nc(C)c(-c2ccc(Oc3ccc(OC(F)(F)F)cc3)cc2)c(OC(=O)c2ccccc2)c1Cl`: the concentration for half-maximal inhibition (IC50) was 0.18 µM. This IC50 is about 3.7-fold lower than that of the molecule before. The figure for `COc1ccc2c(c1CCNCCCCNCCc1c(OC)ccc3c1CCCC3)CCCC2` is 0.38 µM; for `COc1ccc([N+](=O)[O-])cc1N(Cc1ccccc1-c1ccccc1)S(=O)(=O)c1ccc(C(F)(F)F)cc1` it is 0.78 µM; for `Nc1ccc2nc(C=Cc3ccccc3)[nH]c2c1` it is 0.75 µM. `CC1(CCCCN2CC=C(c3c[nH]c4ccccc34)CC2)C(=O)Nc2ccccc21` (stereo not given) yielded an IC50 of 0.14 µM. As for `CC(C)Cc1cn(-c2nc(C(=N)N)cs2)c2cc(Cl)ccc12`, the half-inhibitory concentration (IC50) was 0.15 µM. Turning to `CC[C@H]1CN2CC[C@H]1C[C@H]2[C@H](O)c1cc(-c2ccc3ccccc3c2)nc2ccc(OC)cc12`, the IC50 turned out to be 0.1 µM. The IC50 values of the last two molecules are within 1.5-fold of each other. Turning to `CCCCCc1cc(O)c2c(c1)OC(C)(C)CC2C1=CCN(Cc2cccnc2)CC1` (stereo not given), the half-maximal inhibitory concentration (IC50) worked out at 0.99 µM. For the molecule `O=C(COc1ccccc1)N(Cc1ccc(-c2ccc(CNC3Cc4ccccc4C3)cc2)cc1)C1CCNCC1`, the IC50 turned out to be 1.02 µM.

In turn, `CC(=O)Nc1ccc(OCCCCN(Cc2ccccc2OC(F)(F)F)c2ccc(C(F)(F)F)c(C#N)c2)c(Cl)c1` gave a concentration for half-maximal inhibition (IC50) of 0.53 µM. In turn, `Clc1ccc2nccc(N3CCC(CN4CCC(c5c[nH]c6ccccc56)CC4)CC3)c2c1` yielded an IC50 of 0.03 µM.

With `CC1CCCN(C(=O)c2cc(-c3ccccn3)nc3c(Cl)cccc23)C1` (stereo not given), the 50% inhibitory concentration (IC50) is 1.08 µM. The molecule `O=C(/C=C/c1ccc(Cl)c(Cl)c1)NCCCCCN1CCC(NC(=S)Nc2ccc(Cl)c(Cl)c2)CC1` came in with a 50% inhibitory concentration (IC50) of 0.53 µM.

Molecule `O=S(=O)(NCCN1CCCC1)c1cccc(-c2ccccc2CNC2Cc3ccccc3C2)c1` returned a half-maximal inhibitory concentration (IC50) of 0.74 µM. The IC50 values of the last two molecules are within 1.5-fold of each other. `C(=C(c1cccs1)c1cccs1)c1ccc(CNC2CCN(Cc3ccccc3)CC2)cc1` gave an IC50 of 0.16 µM. Against the preceding molecule, the IC50 is about 4.6-fold lower. `CN1CCN(c2ccnc3ccc(NC(=O)Nc4ccc(Br)cc4)cc23)CC1`: the concentration for half-maximal inhibition (IC50) came out at 0.09 µM. The figure for `COc1ccccc1NC(=O)NC1CCN(CCCCCNC(=O)/C=C/c2ccc(Cl)c(Cl)c2)CC1` is 0.75 µM.

`COc1ccc(C=CC(=O)N2CCC(CN3CCC(c4c[nH]c5ccccc45)CC3)CC2)cc1OC` yielded a half-maximal inhibitory concentration (IC50) of 1.07 µM. `CC(C)CNCc1cccc(-c2ccc(CN(C(=O)Nc3ccccc3)C3CCN(Cc4ccccc4)CC3)cc2)c1` gave an IC50 of 0.48 µM. This IC50 lies about 2.2-fold lower than the previous one.

`Cc1cccc2[nH]c(-c3cccc(-c4ccc(NC(=O)CC5NC(=O)c6ccccc65)cc4)c3)nc12` (stereo not given) came in with an IC50 of 0.29 µM. As for `CCOc1cc(Cc2cnc(N)nc2N)cc(OCC)c1OCC`, the IC50 is 0.28 µM.

For the molecule `O=C(O[C@H]1CN[C@H](C#Cc2cc3ncnc(Nc4ccc5c(ccn5S(=O)(=O)c5cccs5)c4)c3s2)C1)N1CCOCC1`, the half-inhibitory concentration (IC50) was 1.1 µM. Molecule `Cc1ccc(C(=O)Cn2nc(-c3ccc(C)c(S(=O)(=O)N4CCCCC4)c3)ccc2=O)cc1` returned a half-inhibitory concentration (IC50) of 0.33 µM. For the molecule `COc1ccccc1C1CCN(C2CCC(NC(=O)/C=C/c3cc(C(F)(F)F)cc(C(F)(F)F)c3)CC2)CC1` (stereo not given), the IC50 was determined as 1.2 µM. Regarding `CCOc1ccc(C(=O)Nc2nonc2-c2ccc(OC)c(OC)c2)cc1`, the IC50 was 0.87 µM. Under `COc1ccc2nccc([C@@H](O)CN3CCC(c4cc(-c5ccc(Cl)cc5)n[nH]4)CC3)c2n1` stands 0.74 µM.

`COc1ccc(Cc2cccc(C(C(=O)NCc3cc(Cl)cc(Cl)c3)N3CCN(C)CC3)c2)cc1` (stereo not given): the IC50 worked out at 0.69 µM. The figure for `CC1CCNc2ccc(Cc3cnc(N)nc3N)cc21` (stereo not given) is 1.04 µM; for `CC(C)N1CCN(C(CN2CCN(CCCOc3ccc4ccccc4c3)CC2)c2ccc(F)cc2)CC1` (stereo not given) it is 0.58 µM. In turn, `COc1ccc(NC(=O)NC2CCN(CCCOc3cc(C)nc4ccccc34)CC2)cc1OC` showed an IC50 of 1.28 µM. Under `CN(C)S(=O)(=O)c1ccc(N2CCN(CCC3(c4cccc(F)c4)CCN(C(=O)C(C)(C)C)CC3)CC2)c2nonc12` stands 0.7 µM; under `COc1ccc(CNCc2ccc(-c3ccc(-c4nc5ccc(C(F)(F)F)cc5[nH]4)cc3)cc2)cc1`, 0.13 µM. `CC(C)CNCc1ccc(-c2cccc(-c3nc4ccccc4[nH]3)c2)cc1` came in with an IC50 of 0.63 µM. For the molecule `COc1ccc(OCCCON)cc1`, the IC50 was found to be 0.17 µM. The figure for `COc1ccc(CCN2CCC(Nc3nc4ccccc4n3CCc3ccc(OC)cc3)CC2)cc1` is 0.66 µM; for `CC(C)C[C@H](NC(=O)c1cc(-c2ccc(C(C)(C)C)cc2)no1)C(=O)O` (tested in a mixture with another compound) it is 0.19 µM. The molecule `COc1cccc(-c2nn(C)c3sc(C(=O)NCCN(C)Cc4ccccc4)cc23)c1` had a 50% inhibitory concentration (IC50) of 0.81 µM. On to `COc1ccc2nc(-c3cc(-c4ccc(NC(=O)C(C)C)cc4)cnc3N)[nH]c2c1`, for which the half-maximal inhibitory concentration (IC50) is 0.56 µM. Take `O=c1cc(NCCNCc2cccc(-c3ccccc3)c2)[nH]c2ccccc12`: the 50% inhibitory concentration (IC50) is 1.03 µM. Compared with the last molecule, the IC50 is about 1.8-fold higher. Turning to `Cc1cc(C(=O)Nc2ccc3c(c2)CCN3C2CCN(Cc3ccc4nsnc4c3)C2)no1` (stereo not given), the IC50 was 0.64 µM. Regarding `COc1ccc2c(NN=Cc3ccc(OC)c4ccccc34)cc(C)nc2c1`, the IC50 was found to be 0.6 µM. In turn, `c1ccc(Oc2cccc(Nc3ccnc4ccccc34)c2)cc1` displayed a half-inhibitory concentration (IC50) of 1.11 µM.

For the molecule `COc1cc2nc(C)nc(Nc3ccc4c(ccn4Cc4ccccc4)c3)c2cc1OC`, the IC50 came to 0.56 µM.

For `Cc1cccc2c(C(=O)NC3CCN(Cc4ccccc4)CC3)cc(-c3cccnc3)nc12`, the concentration for half-maximal inhibition (IC50) was found to be 1.38 µM. Under `COc1cc(N(Cc2ccccc2C)S(=O)(=O)Cc2ccccc2[N+](=O)[O-])c(OC)cc1Cl` stands 1.01 µM; under `Fc1ccc2nc(-c3cccc(-c4ccc(CNCCc5ccncc5)cc4)c3)[nH]c2c1`, 0.11 µM; under `CN1CCN(CCCN(Cc2ccc(-c3ccc(CNCc4ccc5c(c4)OCO5)cc3)cc2)C(=O)CCC2CCCC2)CC1`, 0.95 µM. The figure for `COc1cc(CNc2ncc(-c3ccsc3)c(-c3nccs3)n2)cc(OC)c1` is 0.13 µM; for `O=C(Nc1cccc(OC2CCN(Cc3ccsc3)CC2)c1)c1ccc(C(F)(F)F)cc1` it is 0.77 µM. The figure for `CN(C)Cc1cccc(-c2ccc(NC(=O)c3ccc4c(=O)n(C5CCCCC5)cnc4c3)cc2)c1` is 0.74 µM.
